Experimental data from ChEMBL document CHEMBL1909046, “DrugMatrix in vitro pharmacology data”.
*1 amine or outer side, *2 acyl side, *3 side chain or, on linkers, in order; H or OH if unused. Where a SMILES comes first, the peptide text is derived from it. Bridges are numbered along the chain shown (N, C = ends). Roman numbers before positions name the chains, in order. [ ]: non-standard residue; d: D form. Actinocin(1to9) = Cc1c2oc3c(C)ccc(C(=O)[*:2])c3nc-2c(C(=O)[*:1])c(N)c1=O; NMeV = CN[C@H](C(=O)O)C(C)C; Sar = CNCC(=O)O

Legend:
Histamine H2 receptor = Histamine H2 receptor (Homo sapiens, UniProt P25021); type: cell membranes, CHO-K1, Membrane; conditions: cho-k1; note: in other assays of this panel Not Active means under 50% inhibition at 10 µM
[1] = molecular target: T1, Cysteinyl leukotriene receptor 1 (Homo sapiens, UniProt Q9Y271); type: cell membranes, CHO-K1, Membrane; conditions: cho-k1; note: in other assays of this panel Not Active means under 50% inhibition at 10 µM
T1 sequence (Q9Y271 whole entry): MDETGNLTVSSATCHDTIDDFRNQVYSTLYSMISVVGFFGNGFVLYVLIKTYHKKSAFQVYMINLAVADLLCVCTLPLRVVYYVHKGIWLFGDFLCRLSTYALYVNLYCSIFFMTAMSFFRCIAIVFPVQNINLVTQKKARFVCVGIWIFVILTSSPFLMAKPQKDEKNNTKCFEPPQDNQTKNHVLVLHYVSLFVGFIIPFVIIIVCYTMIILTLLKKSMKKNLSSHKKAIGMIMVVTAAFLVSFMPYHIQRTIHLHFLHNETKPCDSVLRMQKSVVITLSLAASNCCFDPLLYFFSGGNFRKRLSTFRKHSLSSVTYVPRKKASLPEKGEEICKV

[2] = DRUGMATRIX: Interleukin IL-1 radioligand binding (ligand: [125I] interleukin 1beta); type: cell membranes, Membrane; conditions: nih3t3; Not Active = under 50% inhibition at 10 µM
[3] = molecular target: 5-hydroxytryptamine receptor 4 (Cavia porcellus, UniProt O70528); type: cell membranes, Dunkin-Hartley, Striatum, Membrane; conditions: for Ki: read-out: Ki; for all read-outs here: in other assays of this panel Not Active means under 50% inhibition at 10 µM
[4] = molecular target: T2, Neuropeptide Y receptor type 2 (Homo sapiens, UniProt P49146); type: cell membranes, Membrane; conditions: kan-ts; note: in other assays of this panel Not Active means under 50% inhibition at 10 µM
T2 sequence (P49146 whole entry): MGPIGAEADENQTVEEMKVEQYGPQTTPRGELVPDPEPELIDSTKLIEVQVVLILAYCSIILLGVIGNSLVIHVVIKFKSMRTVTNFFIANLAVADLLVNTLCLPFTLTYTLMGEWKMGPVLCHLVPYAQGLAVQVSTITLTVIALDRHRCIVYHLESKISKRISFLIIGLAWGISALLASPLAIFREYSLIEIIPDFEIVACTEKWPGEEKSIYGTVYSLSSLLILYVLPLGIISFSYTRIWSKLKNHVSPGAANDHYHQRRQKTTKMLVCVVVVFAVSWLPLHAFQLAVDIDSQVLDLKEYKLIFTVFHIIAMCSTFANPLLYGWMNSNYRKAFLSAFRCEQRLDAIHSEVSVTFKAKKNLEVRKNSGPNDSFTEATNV

[5] = DRUGMATRIX: Calcium Channel Type L, Phenylalkylamine radioligand binding (ligand: [3H] (-)-Desmethoxyverapamil (D-888)); type: cell membranes, Rattus norvegicus, Wistar, Brain, Membrane; conditions: Not Active = under 50% inhibition at 10 µM

Histamine H2 receptor, sequence (P25021 whole entry): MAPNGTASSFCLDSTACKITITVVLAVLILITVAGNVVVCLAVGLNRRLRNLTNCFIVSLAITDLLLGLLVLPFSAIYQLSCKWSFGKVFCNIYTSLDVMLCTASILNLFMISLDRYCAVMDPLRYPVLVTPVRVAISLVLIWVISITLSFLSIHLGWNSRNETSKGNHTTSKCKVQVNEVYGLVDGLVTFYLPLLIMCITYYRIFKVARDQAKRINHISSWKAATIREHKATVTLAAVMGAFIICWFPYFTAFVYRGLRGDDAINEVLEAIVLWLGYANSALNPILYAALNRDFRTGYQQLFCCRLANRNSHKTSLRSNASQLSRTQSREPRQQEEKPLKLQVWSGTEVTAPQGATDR
5-hydroxytryptamine receptor 4, sequence (O70528 whole entry): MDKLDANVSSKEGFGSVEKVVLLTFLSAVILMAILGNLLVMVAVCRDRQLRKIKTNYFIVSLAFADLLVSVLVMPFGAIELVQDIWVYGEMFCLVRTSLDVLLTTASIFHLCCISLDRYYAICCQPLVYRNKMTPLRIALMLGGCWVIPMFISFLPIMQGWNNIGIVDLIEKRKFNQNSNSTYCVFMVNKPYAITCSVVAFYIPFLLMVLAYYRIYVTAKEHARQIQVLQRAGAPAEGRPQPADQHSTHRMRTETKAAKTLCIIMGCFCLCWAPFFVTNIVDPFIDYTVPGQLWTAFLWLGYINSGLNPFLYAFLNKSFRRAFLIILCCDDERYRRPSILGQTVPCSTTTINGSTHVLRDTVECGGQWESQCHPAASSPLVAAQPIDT

| SMILES | IC50 (Histamine H2 receptor) | IC50 [1] | IC50 [2] | Ki [2] | IC50 [3] | IC50 [4] | IC50 [5] | Ki [5] | IC50 ([3]; read-out: IC50) [µM] | Ki [3] [nM] | IC50 ([5]; read-out: IC50) [µM] | Ki ([5]; read-out: Ki) [µM] |
| --- | --- | --- | --- | --- | --- | --- | --- | --- | --- | --- | --- | --- |
| C[C@H](CCC(=O)O)[C@H]1CC[C@H]2[C@@H]3[C@H](O)C[C@@H]4C[C@H](O)CC[C@]4(C)[C@H]3C[C@H](O)[C@]12C [CHOLIC ACID] | Not Active | Not Active | Not Active | Not Active | Not Active | Not Active | Not Active | Not Active | – | – | – | – |
| Cc1cc(C2CCCCC2)n(O)c(=O)c1 [CICLOPIROX] | Not Active | Not Active | Not Active | Not Active | Not Active | Not Active | Not Active | Not Active | – | – | – | – |
| CC1=C2C(=CO[C@H](C)[C@H]2C)C(O)=C(C(=O)O)C1=O [CITRININ] | Not Active | Not Active | Not Active | Not Active | Not Active | Not Active | Not Active | Not Active | – | – | – | – |
| CC(C)(C)NCC(O)c1cc(Cl)c(N)c(Cl)c1 (centres undefined) [CLENBUTEROL] | Not Active | Not Active | Not Active | Not Active | Not Active | Not Active | Not Active | Not Active | – | – | – | – |
| CC(C)(Oc1ccc(Cl)cc1)C(=O)O [CLOFIBRIC ACID] | Not Active | Not Active | Not Active | Not Active | Not Active | Not Active | Not Active | Not Active | – | – | – | – |
| Clc1cccc(Cl)c1NC1=NCCN1 [CLONIDINE] | Not Active | Not Active | Not Active | Not Active | Not Active | Not Active | Not Active | Not Active | – | – | – | – |
| Cc1cc(C(C#N)c2ccc(Cl)cc2)c(Cl)cc1NC(=O)c1cc(I)cc(I)c1O (centres undefined) [CLOSANTEL] | Not Active | Not Active | Not Active | Not Active | Not Active | Not Active | Not Active | Not Active | – | – | – | – |
| Cc1onc(-c2ccccc2Cl)c1C(=O)N[C@@H]1C(=O)N2[C@@H]1SC(C)(C)[C@@H]2C(=O)O [CLOXACILLIN] | Not Active | Not Active | Not Active | Not Active | Not Active | Not Active | Not Active | Not Active | – | – | – | – |
| CC1CC(OC(=O)C(O)c2ccccc2)CC(C)(C)C1 (centres undefined) [CYCLANDELATE] | Not Active | Not Active | Not Active | Not Active | Not Active | Not Active | Not Active | Not Active | – | – | – | – |
| Cc1c2oc3c(C)ccc(C(=O)N[C@@H]4C(=O)N[C@H](C(C)C)C(=O)N5CCC[C@H]5C(=O)N(C)CC(=O)N(C)[C@@H](C(C)C)C(=O)O[C@@H]4C)c3nc-2c(C(=O)N[C@@H]2C(=O)N[C@H](C(C)C)C(=O)N3CCC[C@H]3C(=O)N(C)CC(=O)N(C)[C@@H](C(C)C)C(=O)O[C@@H]2C)c(N)c1=O [DACTINOMYCIN] (I: T[dV]P[Sar][NMeV] / II: T[dV]P[Sar][NMeV]; ester I:1-I:C, II:1-II:C; linker I:N-II:N via Actinocin(1to9)) | Not Active | Not Active | Not Active | Not Active | Not Active | Not Active | Not Active | Not Active | – | – | – | – |
| Cc1c(O)c(=O)ccn1C [DEFERIPRONE] | Not Active | Not Active | Not Active | Not Active | Not Active | Not Active | Not Active | Not Active | – | – | – | – |
| CNCCCN1c2ccccc2CCc2ccccc21 [DESIPRAMINE] | Not Active | Not Active | Not Active | Not Active | Not Active | Not Active | Not Active | Not Active | – | – | – | – |
| O=c1oc2ccccc2c(O)c1Cc1c(O)c2ccccc2oc1=O [DICUMAROL] | Not Active | Not Active | Not Active | Not Active | Not Active | Not Active | Not Active | Not Active | – | – | – | – |
| C[C@H]1O[C@@H](O[C@H]2[C@@H](O)C[C@H](O[C@H]3[C@@H](O)C[C@H](O[C@H]4CC[C@@]5(C)[C@H](CC[C@@H]6[C@@H]5C[C@@H](O)[C@]5(C)[C@@H](C7=CC(=O)OC7)CC[C@]65O)C4)O[C@@H]3C)O[C@@H]2C)C[C@H](O)[C@@H]1O [DIGOXIN] | Not Active | Not Active | Not Active | Not Active | Not Active | Not Active | Not Active | Not Active | – | – | – | – |
| CC(C)[C@@]1(NC(=O)[C@@H]2C[C@@H]3c4cccc5[nH]cc(c45)C[C@H]3N(C)C2)O[C@@]2(O)[C@@H]3CCCN3C(=O)[C@H](Cc3ccccc3)N2C1=O.CS(=O)(=O)O [DIHYDROERGOCRISTINE MESYLATE] | Not Active | Not Active | Not Active | Not Active | – | Not Active | Not Active | Not Active | 4.91 | 819 | – | – |
| CC(=O)O[C@@]12CO[C@@H]1C[C@H](O)[C@@]1(C)C(=O)[C@H](O)C3=C(C)[C@@H](OC(=O)[C@H](O)[C@@H](NC(=O)OC(C)(C)C)c4ccccc4)C[C@@](O)([C@@H](OC(=O)c4ccccc4)[C@H]21)C3(C)C.O.O.O [DOCETAXEL] | Not Active | Not Active | Not Active | Not Active | Not Active | Not Active | Not Active | Not Active | – | – | – | – |
| COc1cc2nc(N3CCN(C(=O)C4COc5ccccc5O4)CC3)nc(N)c2cc1OC (centres undefined) [DOXAZOSIN] | Not Active | Not Active | Not Active | Not Active | – | Not Active | Not Active | Not Active | 0.764 | 127 | – | – |
| C[C@H]1c2cccc(O)c2C(=O)C2=C(O)[C@]3(O)C(=O)C(C(N)=O)=C(O)[C@@H](N(C)C)[C@@H]3[C@@H](O)[C@@H]21.O [DOXYCYCLINE] | Not Active | Not Active | Not Active | Not Active | Not Active | Not Active | Not Active | Not Active | – | – | – | – |
| O=C(CCCN1CC=C(n2c(=O)[nH]c3ccccc32)CC1)c1ccc(F)cc1 [DROPERIDOL] | Not Active | Not Active | Not Active | Not Active | – | Not Active | – | – | 3.79 | 632 | 4.17 | 4.05 |
| CC(C)[C@H]1C(=O)N2CCC[C@H]2[C@]2(O)O[C@](NC(=O)[C@@H]3C=C4c5cccc6[nH]cc(c56)C[C@H]4N(C)C3)(C(C)C)C(=O)N12 [ERGOCORNINE] | Not Active | Not Active | Not Active | Not Active | Not Active | Not Active | Not Active | Not Active | – | – | – | – |
| C[C@]12CC[C@@H]3c4ccc(O)cc4CC[C@H]3[C@@H]1CCC2=O [ESTRONE] | Not Active | Not Active | Not Active | Not Active | Not Active | Not Active | Not Active | Not Active | – | – | – | – |
| OC(Cn1cncn1)(Cn1cncn1)c1ccc(F)cc1F [FLUCONAZOLE] | Not Active | Not Active | Not Active | Not Active | Not Active | Not Active | Not Active | Not Active | – | – | – | – |
| CC(C)C(=O)Nc1ccc([N+](=O)[O-])c(C(F)(F)F)c1 [FLUTAMIDE] | Not Active | Not Active | Not Active | Not Active | – | Not Active | Not Active | Not Active | 13.5 | 2260 | – | – |
| N=C(N)NCCN1CCCCCCC1 [GUANETHIDINE] | Not Active | Not Active | Not Active | Not Active | Not Active | Not Active | Not Active | Not Active | – | – | – | – |
| CC1(C)O[C@@H]2C[C@H]3[C@@H]4CCC5=CC(=O)CC[C@]5(C)[C@@]4(F)[C@@H](O)C[C@]3(C)[C@]2(C(=O)CCl)O1 [HALCINONIDE] | Not Active | Not Active | Not Active | Not Active | Not Active | Not Active | Not Active | Not Active | – | – | – | – |
